Reference: article PMC11802822, “Comprehensive safety and toxicity analysis of 2,2’-Bipyridine derivatives in combating MRSA biofilm formation and persistence” (Frontiers in Cellular and Infection Microbiology, 2025)
≈ marks a conversion by molar mass, not a printed value.

Experiments:
B. subtilis (MTCC 441) = assay: Agar well diffusion; conditions: for zone of inhibition at 50 µg/mL: Bacillus subtilis, MTCC441
M. luteus (MTCC 106) = assay: Agar well diffusion; conditions: Micrococcus luteus, MTCC106
E. coli (MTCC739) [1] = assay: Broth microdilution MIC; conditions: for MIC: Escherichia coli, MTCC739, 18 h, read-out: Minimum inhibitory concentration
E. coli (MTCC739) [2] = assay: Agar well diffusion; conditions: for zone of inhibition at 50 µg/mL: Escherichia coli, MTCC739
V. cholerae (MTCC 3906) [3] = assay: Broth microdilution MIC; type: cell-based, Vibrio cholerae; conditions: for MIC: Vibrio cholerae, MTCC3906, 18 h, read-out: Minimum inhibitory concentration
K. pneumoniae (MTCC 618) [4] = assay: Broth microdilution MIC; conditions: for MIC: Klebsiella pneumoniae, MTCC618, 18 h, read-out: Minimum inhibitory concentration
P. aeruginosa (MTCC1934) [5] = assay: Broth microdilution MIC; conditions: for MIC: Pseudomonas aeruginosa, MTCC1934, 18 h, read-out: Minimum inhibitory concentration
S. aureus (MTCC737) [6] = assay: Broth microdilution MIC; conditions: for MIC: Staphylococcus aureus, MTCC737, 18 h, read-out: Minimum inhibitory concentration
MTCC 737 [7] = assay: Biofilm inhibition assay (crystal violet); conditions: S. aureus; at MIC or higher concentrations
Protocol: After incubation, cells were washed with 1X PBS, and stained with 100 µl of Crystal Violet dye for 15 min, and rinsed again with 1X PBS.

S. aureus (MTCC737) [8] = assay: Agar well diffusion; conditions: for zone of inhibition at 50 µg/mL: Staphylococcus aureus, MTCC737
MRSA 831 (MRSA) = assay: Agar well diffusion; conditions: MRSA 831, 50 µg/ml, ND = Not detected; for zone of inhibition at 50 µg/mL: Staphylococcus aureus, MRSA
P. aeruginosa (MTCC1934) [9] = assay: Agar well diffusion; conditions: for zone of inhibition at 50 µg/mL: Pseudomonas aeruginosa, MTCC1934
MRSA 831 [10] = assay: Broth microdilution MIC; conditions: 18 h; for MIC: Staphylococcus aureus, MRSA, read-out: Minimum inhibitory concentration
MRSA 831 [11] = assay: PI uptake assay; type: cell-based, methicillin-resistant S. aureus; conditions: derivatives 100 µg/ml, Polymyxin B 10 μM, 1 h
Protocol: (§1) MTCC 737 and MRSA 831 were grown, washed, and resuspended in 5 mM HEPES (pH 7.2), with the OD600 normalized to 0.5. […] Polymyxin B (10 μM), a membrane destabilizer, was used as a reference control. Drug-free and vehicle controls (cells treated with 0.5% DMSO) were included to analyze changes in fluorescence. After 1 h of treatment, cultures were centrifuged and stained with 5 µM PI dye for 15 min. Following staining, the cultures were washed twice to remove the extra dye, and fluorescence was recorded at 485 nm excitation and 525 nm emission wavelengths ([Zhou et al., 2020]).

V. cholerae (MTCC 3906) [12] = assay: Agar well diffusion; type: cell-based, Vibrio cholerae; conditions: for zone of inhibition at 50 µg/mL: Vibrio cholerae, MTCC3906
MRSA 831 [13] = assay: Neutropenic thigh infection model in mice; conditions: neutropenic BALB/c mice, MRSA 831 10^8 CFU/ml, oral 30 mg/kg, after 2 h and 24 h, vs untreated control
MTCC 737 [14] = assay: PI uptake assay; type: cell-based, Staphylococcus aureus; conditions: derivatives 100 µg/ml, Polymyxin B 10 μM, 1 h
Protocol: as §1

K. pneumoniae (MTCC 618) [15] = assay: Agar well diffusion; conditions: 50 µg/ml, ND = Not detected
Cytotoxicity (MTT assay) = type: cell-based, murine; conditions: mouse, 3T3-L1 fibroblast cells, 3T3L-1 cells, read-out: IC50 (cytotoxicity, MTT)
Protocol: The murine fibroblast 3T3 L-1 cell line was procured from the National Centre for Cell Science (NCCS), Pune, India. The 3T3 L-1 cells were incubated at 37°C in an incubator maintained at 95% humidity and 5% CO2 in DMEM medium complemented with 10% fetal bovine serum (FBS) and 1% penicillin-streptomycin.
Synthesized derivatives were evaluated for cytotoxicity in a 3T3-L1 cell line using the MTT assay ([Ernawati et al., 2022]). 8000 cells/well were added in 96-well tissue culture flat-bottom microtiter plates for 24 h and then incubated with synthesized molecules (0-400 µg/ml) for 48 h at 37°C in a CO2 incubator. DMSO was used as solvent at a concentration of 0.1% to ensure that any observed effects were not attributable to the solvent itself, whereas 1 µg/ml doxorubicin was used in toxicity tests as a positive control. Subsequently, the media was replaced with MTT solution (100 µl) diluted in fresh media (0.5 mg/ml), and incubated for 4 h. After incubation, 100 µl of stop solution (50% DMF with 20% SDS) was added to dissolve the formazan crystals, and the plates were further incubated for 1 h. Absorbance was measured at 570 nm using BioTEK Synergy multi-plate reader ([Mosmann, 1983]; [Pratelli et al., 2023]). Percent cell viability was calculated using the following formula:
Cell viability (%)=Absorbance (Untreated - blank) - Absorbance (Test sample- blank)/Absorbance (Untreated - blank)×100

MRSA 831 persister cells = assay: Persister killing assay; type: cell-based, methicillin-resistant S. aureus; conditions: MRSA persisters; 4-fold MIC
Protocol: To evaluate the persister-killing activity of 2,2’-Bipy derivatives, MTCC 737 and MRSA 831 cells were grown overnight to the stationary phase at 37°C ([Kim et al., 2018b]). […]. The bacterial densities of persisters were recorded at OD600 at hourly intervals from 0 to 6 h.

Which zone of inhibition at 50 µg/mL (B. subtilis (MTCC 441)) does the source give for `CC1(C)S[C@@H]2[C@H](NC(=O)[C@H](N)c3ccccc3)C(=O)N2[C@H]1C(=O)O` [Ampicillin, reference compound] here?
Its zone of inhibition at 50 µg/mL is 19.3 ± 0.58 mm.

And the zone of inhibition at 50 µg/mL (M. luteus (MTCC 106))?
The zone of inhibition at 50 µg/mL was 21 mm.

What about the MIC (E. coli (MTCC739) [1]) of the same compound?
The MIC was 6.25 µg/mL (≈ 17.9 µM).

And the zone of inhibition at 50 µg/mL (E. coli (MTCC739) [2])?
The zone of inhibition at 50 µg/mL was 4 mm.

And the MIC (V. cholerae (MTCC 3906) [3])?
The MIC was 25 µg/mL (≈ 71.5 µM).

And the MIC (K. pneumoniae (MTCC 618) [4])?
The MIC was greater than 100 µg/mL.

What about the MIC (P. aeruginosa (MTCC1934) [5]) of the same compound?
The MIC was 25 µg/mL (≈ 71.5 µM).

Which results are given for `C=CCOc1cc(C(C)=NO)nc(-c2ccccn2)c1` [NPS1, N-[1-(4-allyloxy[2,2’-bipyridin]-6-yl)ethyldiene]hydroxylamine]?
Zone of inhibition (B. subtilis (MTCC 441); B. subtilis (MTCC 441), 50 µg/ml, ND = Not detected): 5.33 ± 2.31 mm; Minimum inhibitory concentration (S. aureus (MTCC737) [6]; S. aureus (MTCC737), 18 h): 50 µg/mL (≈ 186 µM); Biofilm formation inhibition (in words) (MTCC 737 [7]): highly effective; Zone of inhibition (S. aureus (MTCC737) [8]; S. aureus (MTCC737), 50 µg/ml, ND = Not detected): 17.00 ± 2.65 mm; Minimum inhibitory concentration (E. coli (MTCC739) [1]; E. coli (MTCC739), 18 h): >100 µg/mL; Zone of inhibition (MRSA 831 (MRSA)): 8.67 ± 0.58 mm; Zone of inhibition (P. aeruginosa (MTCC1934) [9]; P. aeruginosa (MTCC1934), 50 µg/ml, ND = Not detected): 7.67 ± 1.53 mm; Minimum inhibitory concentration (MRSA 831 [10]; MRSA 831): 50 µg/mL (≈ 186 µM); PI fluorescence (membrane integrity) (MRSA 831 [11]): exhibited fluorescence indicating membrane instability; Zone of inhibition (V. cholerae (MTCC 3906) [12]; V. cholerae (MTCC 3906), 50 µg/ml, ND = Not detected): 15.33 ± 1.53 mm; Reduction in the bacterial load in thigh tissue (MRSA 831 [13]): ~ 1.8 log10; Zone of inhibition (E. coli (MTCC739) [2]; E. coli (MTCC739), 50 µg/ml, ND = Not detected): 9.33 ± 0.58 mm; Minimum inhibitory concentration (V. cholerae (MTCC 3906) [3]; V. cholerae (MTCC 3906), 18 h): 12.5 µg/mL (≈ 46.4 µM); PI fluorescence (membrane integrity) (MTCC 737 [14]): exhibited fluorescence indicating membrane instability; Minimum inhibitory concentration (K. pneumoniae (MTCC 618) [4]; K. pneumoniae (MTCC 618), 18 h): >100 µg/mL; Zone of inhibition (K. pneumoniae (MTCC 618) [15]): 6.00 ± 3.46 mm; Minimum inhibitory concentration (P. aeruginosa (MTCC1934) [5]; P. aeruginosa (MTCC1934), 18 h): >100 µg/mL

What does the source list for `C#CCOc1cc(C(=NO)c2ccccc2OC)nc(-c2ccccn2)c1` [NPS2, N-[(4-propargyloxy-[2,2’-bipyridin]-6-yl)(2-methoxyphenyl)methylidene] hydroxylamine]?
zone of inhibition at 50 µg/mL (B. subtilis (MTCC 441)): 8.33 ± 1.15 mm; MIC (S. aureus (MTCC737) [6]): 50 µg/mL (≈ 139 µM); zone of inhibition at 50 µg/mL (S. aureus (MTCC737) [8]): 14 mm; zone of inhibition at 50 µg/mL (M. luteus (MTCC 106)): 17 mm; MIC (E. coli (MTCC739) [1]): > 100 µg/mL; zone of inhibition at 50 µg/mL (MRSA 831 (MRSA)): 9.67 ± 0.58 mm; zone of inhibition at 50 µg/mL (P. aeruginosa (MTCC1934) [9]): 8.33 ± 1.53 mm; MIC (MRSA 831 [10]): 50 µg/mL (≈ 139 µM); zone of inhibition at 50 µg/mL (V. cholerae (MTCC 3906) [12]): 13 ± 1.73 mm; zone of inhibition at 50 µg/mL (E. coli (MTCC739) [2]): 9 mm; MIC (V. cholerae (MTCC 3906) [3]): 25 µg/mL (≈ 69.6 µM); MIC (K. pneumoniae (MTCC 618) [4]): > 100 µg/mL; MIC (P. aeruginosa (MTCC1934) [5]): > 100 µg/mL

For `COc1ccnc(-c2cc(OC)cc(C(=NO)c3ccccc3OC)n2)c1` [NPS3, N-[(4,4’-dimethoxyl[2,2’-bipyridin]-6-yl)(2-methoxyphenyl)methylidene] hydroxylamine], which zone of inhibition at 50 µg/mL (B. subtilis (MTCC 441)) is on record?
Its zone of inhibition at 50 µg/mL is 4.67 ± 1.15 mm.

And the MIC (S. aureus (MTCC737) [6])?
Its MIC is 50 µg/mL (≈ 137 µM).

And the zone of inhibition at 50 µg/mL (S. aureus (MTCC737) [8])?
Its zone of inhibition at 50 µg/mL is 13.7 ± 1.15 mm.

And the zone of inhibition at 50 µg/mL (M. luteus (MTCC 106))?
The zone of inhibition at 50 µg/mL was 14.7 ± 1.15 mm.

And the IC50 at 24 h (Cytotoxicity (MTT assay); 24 h)?
The IC50 at 24 h was 253 µg/mL.

What about the IC50 at 48 h (Cytotoxicity (MTT assay); 48 h) of the same compound?
The IC50 at 48 h was 274 µg/mL.

And the MIC (E. coli (MTCC739) [1])?
The MIC was greater than 100 µg/mL.

What about the zone of inhibition at 50 µg/mL (MRSA 831 (MRSA)) of the same compound?
The zone of inhibition at 50 µg/mL was 9.67 ± 0.58 mm.

What about the zone of inhibition at 50 µg/mL (P. aeruginosa (MTCC1934) [9]) of the same compound?
The zone of inhibition at 50 µg/mL was 11.3 ± 1.15 mm.

What about the MIC (MRSA 831 [10]) of the same compound?
The MIC was 50 µg/mL (≈ 137 µM).

And the zone of inhibition at 50 µg/mL (V. cholerae (MTCC 3906) [12])?
The zone of inhibition at 50 µg/mL was 12.3 ± 2.52 mm.

And the “Effect on persister cell counts” value (MRSA 831 persister cells)?
The value was “significantly reduced”.

And the MIC (V. cholerae (MTCC 3906) [3])?
The MIC was 25 µg/mL (≈ 68.4 µM).

And the MIC (K. pneumoniae (MTCC 618) [4])?
Its MIC is greater than 100 µg/mL.

And the MIC (P. aeruginosa (MTCC1934) [5])?
Its MIC is greater than 100 µg/mL.
